Measured values as given in article PMC12302338, “Functional genomics and structural insights into maize aldo-keto reductase-4 family: Stress metabolism and substrate specificity in embryos” (The Journal of Biological Chemistry, 2025).

Biological target: T1, ZmAKR4C13 (Zea mays, UniProt E9JVD4)
T1 construct: gene AR3; monomer
Assay: X-ray crystallography
Type: binding
Conditions: 5JGW 2.30 Å (P2_12_12_1); 5JGY 1.45 Å (P2_1), partial occupancy
Source text: X-ray crystallography on ZmAKR4C13 | b32; b72

T1 sequence (E9JVD4 1-319): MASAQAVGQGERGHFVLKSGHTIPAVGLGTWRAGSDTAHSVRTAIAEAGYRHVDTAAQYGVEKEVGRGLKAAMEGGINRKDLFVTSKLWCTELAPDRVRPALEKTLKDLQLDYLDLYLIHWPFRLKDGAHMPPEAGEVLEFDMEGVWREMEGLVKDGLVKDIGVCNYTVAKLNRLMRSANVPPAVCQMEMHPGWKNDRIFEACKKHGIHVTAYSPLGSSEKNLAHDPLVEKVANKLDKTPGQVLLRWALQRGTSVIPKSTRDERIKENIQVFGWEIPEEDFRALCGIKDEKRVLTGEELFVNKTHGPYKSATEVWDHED

NC(=O)c1ccc[n+]([C@@H]2O[C@H](COP(=O)(O)OP(=O)(O)OC[C@H]3O[C@@H](n4cnc5c(N)ncnc54)[C@H](OP(=O)(O)O)[C@@H]3O)[C@@H](O)[C@H]2O)c1 [NADP+]
X-ray crystallography: b32; b72
